The results in this text go back to ChEMBL document CHEMBL1131993, “Binding affinities of 3-(3-phenylisoxazol-5-yl)methylidene-1-azabicycles to acetylcholine receptors” (Bioorg Med Chem Lett, 1999).

By inhibition is commonly meant the percentage by which the read-out fell short of the control. Broadly, the IC50 is the midpoint of a concentration-inhibition curve.

Assay [1] has as its target Muscarinic acetylcholine receptor M3 (Homo sapiens) (UniProt P20309). In words: Ability to displace [3H]N-methylscopolamine binding to M3 human recombinant muscarinic receptor in CHO cells at concentration 1 uM. It counts as cell-based.
Assay [2] addresses T1, Neuronal acetylcholine receptor subunit alpha-7 (Rattus norvegicus, UniProt Q05941). Description: The compound was tested for its binding affinity against nicotinic receptor in synaptic membrane fractions from rat cerebral cortices. It counts as cell membranes.
Assay [3] deals with Muscarinic acetylcholine receptor M3 (Homo sapiens) (UniProt P20309). Description: Ability to displace [3H]N-methylscopolamine binding to M3 human recombinant muscarinic receptor in CHO cells at concentration 10 uM. Type of assay: cell-based.
Assay [4] addresses T2, Muscarinic acetylcholine receptor M2 (Homo sapiens) (UniProt P08172).
T2 sequence (whole entry): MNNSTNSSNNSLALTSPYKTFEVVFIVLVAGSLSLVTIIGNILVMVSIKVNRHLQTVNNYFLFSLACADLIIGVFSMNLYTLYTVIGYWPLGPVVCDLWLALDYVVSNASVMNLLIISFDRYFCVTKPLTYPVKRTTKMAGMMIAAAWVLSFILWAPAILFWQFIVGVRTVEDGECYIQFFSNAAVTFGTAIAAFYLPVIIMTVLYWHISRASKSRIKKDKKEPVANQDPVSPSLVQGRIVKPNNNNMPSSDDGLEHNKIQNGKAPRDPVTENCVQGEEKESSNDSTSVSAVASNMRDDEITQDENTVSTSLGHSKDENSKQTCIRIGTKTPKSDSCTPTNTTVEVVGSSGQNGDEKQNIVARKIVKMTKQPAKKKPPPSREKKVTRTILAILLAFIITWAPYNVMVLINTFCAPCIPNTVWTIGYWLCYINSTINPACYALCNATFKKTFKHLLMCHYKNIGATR
Description: Ability to displace [3H]N-methylscopolamine binding to M2 human recombinant muscarinic receptor in CHO cells at concentration 1 uM. It counts as cell-based.

Assay [5] has as its target T3, Neuronal acetylcholine receptor (Rattus norvegicus) (UniProt P04757+P09483+P12389+P12390+P12392+P43144+Q9JLB5+P12391+P43143+P20420+Q05941). Description: Ability to displace [3H]cytisine binding to nicotinic receptor in synaptic membrane fractions from rat cerebral cortices at a concentration of 10 uM. Type of assay: cell membranes.
For assay [6], the target named is T2, Muscarinic acetylcholine receptor M2 (Homo sapiens). In words: Ability to displace [3H]N-methylscopolamine binding to M2 human recombinant muscarinic receptor in CHO cells at concentration 10 uM. Type of assay: cell-based.
Assay [7] concerns the target T4, Muscarinic acetylcholine receptor M1 (Homo sapiens) (UniProt P11229).
T4 sequence (whole entry): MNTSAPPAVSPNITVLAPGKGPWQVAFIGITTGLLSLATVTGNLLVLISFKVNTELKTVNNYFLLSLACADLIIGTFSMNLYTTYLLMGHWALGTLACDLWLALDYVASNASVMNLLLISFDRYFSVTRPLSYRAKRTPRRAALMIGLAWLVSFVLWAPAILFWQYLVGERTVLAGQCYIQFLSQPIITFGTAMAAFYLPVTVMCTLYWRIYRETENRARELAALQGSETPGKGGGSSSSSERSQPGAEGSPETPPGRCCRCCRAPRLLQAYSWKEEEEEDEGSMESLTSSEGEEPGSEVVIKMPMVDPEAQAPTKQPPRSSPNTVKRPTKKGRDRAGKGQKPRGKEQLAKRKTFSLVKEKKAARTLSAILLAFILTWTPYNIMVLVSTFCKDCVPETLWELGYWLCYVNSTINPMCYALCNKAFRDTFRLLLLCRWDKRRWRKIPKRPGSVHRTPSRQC
In words: Ability to displace [3H]N-methylscopolamine binding to M1 human recombinant muscarinic receptor in CHO cells at concentration 1 uM. It counts as cell-based.

For assay [8], the target named is T4, Muscarinic acetylcholine receptor M1 (Homo sapiens). In words: Ability to displace [3H]N-methylscopolamine binding to M1 human recombinant muscarinic receptor in CHO cells at concentration 10 uM. Type of assay: cell-based.
Assay [9] has as its target T3, Neuronal acetylcholine receptor (Rattus norvegicus). Description: (§1) Ability to displace [3H]cytisine binding to Nicotinic acetylcholine receptor in synaptic membrane fractions from rat cerebral cortices at a concentration of 10 uM. It counts as cell membranes.
Assay [10] addresses T5, Muscarinic acetylcholine receptor M1 (Homo sapiens, UniProt P11229).
T5 sequence (P11229 whole entry): T4 sequence (whole entry)
In words: Compound was tested for its binding affinity against M1 human recombinant muscarinic receptor in CHO cells. Type of assay: cell-based.

For assay [11], the target named is T1, Neuronal acetylcholine receptor subunit alpha-7. In words: Compound was tested for its binding affinity against nicotinic receptor in synaptic membrane fractions from rat cerebral cortices. Type of assay: cell membranes.
The target of assay [12] is T5, Muscarinic acetylcholine receptor M1. In words: The compound was tested for its binding affinity against M1 human recombinant muscarinic receptor in CHO cells. It counts as cell-based.
The target in assay [13] is T6, Acetylcholine receptor subunit delta (Torpedo californica) (UniProt P02718).
T6 sequence (whole entry): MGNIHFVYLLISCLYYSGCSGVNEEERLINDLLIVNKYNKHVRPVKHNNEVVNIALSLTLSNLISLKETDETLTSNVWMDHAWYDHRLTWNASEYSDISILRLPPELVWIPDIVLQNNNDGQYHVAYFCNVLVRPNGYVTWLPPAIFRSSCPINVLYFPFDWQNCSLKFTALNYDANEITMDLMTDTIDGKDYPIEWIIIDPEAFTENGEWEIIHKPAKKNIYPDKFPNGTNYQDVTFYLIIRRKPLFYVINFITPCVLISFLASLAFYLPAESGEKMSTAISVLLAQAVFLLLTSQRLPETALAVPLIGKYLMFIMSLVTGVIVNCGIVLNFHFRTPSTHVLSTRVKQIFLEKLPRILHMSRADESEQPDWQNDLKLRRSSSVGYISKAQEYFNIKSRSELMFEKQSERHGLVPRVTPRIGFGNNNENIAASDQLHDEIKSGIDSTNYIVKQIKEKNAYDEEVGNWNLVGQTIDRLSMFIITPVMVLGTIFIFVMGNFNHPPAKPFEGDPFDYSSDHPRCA
The description is as §1. It counts as cell membranes. The following applies: target entry is the homologue from another species.

In assay [14] the target is Neuronal acetylcholine receptor. Description: The compound was tested for its binding affinity against Nicotinic acetylcholine receptor in synaptic membrane fractions from rat cerebral cortices. Type of assay: cell membranes.

T1 sequence (Q05941 whole entry): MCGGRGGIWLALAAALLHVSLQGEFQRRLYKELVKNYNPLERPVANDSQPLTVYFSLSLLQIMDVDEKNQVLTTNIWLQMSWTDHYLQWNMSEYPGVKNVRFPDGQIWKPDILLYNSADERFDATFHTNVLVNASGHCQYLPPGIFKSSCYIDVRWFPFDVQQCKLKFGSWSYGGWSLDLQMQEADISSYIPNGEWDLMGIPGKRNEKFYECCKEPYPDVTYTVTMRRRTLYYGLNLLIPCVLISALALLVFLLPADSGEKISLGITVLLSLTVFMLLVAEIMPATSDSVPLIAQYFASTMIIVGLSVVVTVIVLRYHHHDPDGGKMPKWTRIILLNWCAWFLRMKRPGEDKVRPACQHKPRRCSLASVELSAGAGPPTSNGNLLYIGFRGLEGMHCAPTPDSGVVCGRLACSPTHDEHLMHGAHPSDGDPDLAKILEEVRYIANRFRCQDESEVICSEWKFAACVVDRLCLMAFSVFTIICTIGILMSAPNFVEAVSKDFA
Muscarinic acetylcholine receptor M3 (Homo sapiens), sequence (P20309 whole entry, looked up): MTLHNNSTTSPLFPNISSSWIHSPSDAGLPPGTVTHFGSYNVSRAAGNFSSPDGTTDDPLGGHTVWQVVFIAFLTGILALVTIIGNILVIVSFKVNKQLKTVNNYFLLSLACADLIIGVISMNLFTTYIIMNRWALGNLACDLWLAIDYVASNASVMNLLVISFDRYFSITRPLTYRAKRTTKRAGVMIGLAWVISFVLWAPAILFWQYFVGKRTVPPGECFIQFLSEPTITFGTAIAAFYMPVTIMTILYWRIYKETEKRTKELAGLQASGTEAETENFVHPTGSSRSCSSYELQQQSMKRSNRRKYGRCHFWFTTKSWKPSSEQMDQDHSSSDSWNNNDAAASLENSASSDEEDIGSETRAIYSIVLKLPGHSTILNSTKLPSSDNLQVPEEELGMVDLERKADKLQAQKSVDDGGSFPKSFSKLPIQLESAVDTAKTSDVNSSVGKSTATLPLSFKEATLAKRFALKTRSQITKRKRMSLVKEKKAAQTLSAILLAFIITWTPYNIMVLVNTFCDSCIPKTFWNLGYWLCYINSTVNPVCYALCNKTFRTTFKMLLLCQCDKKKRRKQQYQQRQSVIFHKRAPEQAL

For `N#Cc1ccc(-c2cc(/C=C3\CN4CCC3CC4)on2)cc1`, the inhibition in [1] is 9%; in assay [3], 31%; in [4], 6%; in assay [5], 83%; in assay [6] it was 32%; in [7], 2%. In assay [8], the inhibition was determined as 22%. The compound also returned an IC50 in assay [2] above 10 nM.
In the case of `COc1ccc(-c2cc(/C=C3/CN4CCC3C4)on2)cc1` (stereo not given), the inhibition in assay [1] was determined as 0%; in assay [3], 0%; in assay [4], 15%; in assay [9], 58%; in assay [6] it was 19%; in assay [7], 8%. In addition, the inhibition in assay [8] turned out to be 45%.
On to `COc1ccc(-c2cc(/C=C3\CN4CCC3C4)on2)cc1` (stereo not given), for which the inhibition is 0% in assay [1]; 2% in assay [3]; 7% in assay [4]; 55% in assay [9]; 24% in assay [6]; 0% in [7]. For the same compound, in [8], the inhibition turned out to be 34%.
As for `N#Cc1ccc(-c2cc(/C=C3/CN4CCC3CC4)on2)cc1`, the inhibition amounted to 1% in assay [1]; 26% in assay [3]; 0% in [4]; 92% in [5]; 23% in assay [6]; 11% in assay [7]. Further, in assay [8], the inhibition was found to be 61%. This compound also returned a half-maximal inhibitory concentration (IC50) in assay [2] of 803 nM.
As to `COc1ccc(COc2ccc(-c3cc(/C=C4\CN5CCC4C5)on3)cc2)cc1` (stereo not given), the inhibition came out at 0% in assay [9], 69% in assay [7] and 84% in assay [8].
Turning to `Cc1cc(/C=C2\CN3CCC2CC3)on1`, the IC50 in assay [10] was around 10000 nM; in [11], 12 nM.
For the compound `Nc1ccc(-c2cc(/C=C3\CN4CCC3CC4)on2)cc1`, the inhibition in [1] was determined as 0%; in assay [3], 0%; in assay [4] it was 0%; in assay [9] it was 77%; in [6] it was 5%; in [7], 0%. In addition, the inhibition in assay [8] was 4%.
For `COc1ccc(COc2ccc(-c3cc(/C=C4/CN5CCC4C5)on3)cc2OCc2ccc(OC)cc2)cc1` (stereo not given), the inhibition is 9% in assay [1]; 82% in assay [3]; 24% in assay [4]; 0% in assay [5]; 78% in [6]; 39% in [7]. The inhibition in assay [8] was found to be 91%. In addition, the IC50 in assay [12] was found to be 1230 nM.
With `Oc1ccc(-c2cc(/C=C3\CN4CCC3CC4)on2)cc1O`, the inhibition in assay [1] turned out to be 0%; in [3], 0%; in [4], 0%; in assay [13] it was 88%; in [6] it was 7%; in [7], 0%. In assay [8], the inhibition was determined as 8%.
For the compound `Oc1ccc(-c2cc(/C=C3/CN4CCC3CC4)on2)cc1`, the inhibition in assay [1] was 3%; in assay [3], 14%; in assay [4], 3%; in assay [5], 93%; in [6], 17%; in [7] it was 6%. For the same compound, the inhibition in [8] was 65%. The half-maximal inhibitory concentration (IC50) in assay [2] was found to be 695 nM.
For the compound `Oc1ccc(-c2cc(/C=C3/CN4CCC3CC4)on2)cc1O`, the inhibition in assay [1] is 5%; in assay [3], 39%; in [4] it was 12%; in assay [13] it was 95%; in assay [6] it was 43%; in assay [7] it was 13%. In addition, the inhibition in assay [8] was 59%. Further, the half-inhibitory concentration (IC50) in assay [14] turned out to be 486 nM.
Take `CC(C)(C)OC(=O)Nc1ccc(-c2cc(/C=C3/CN4CCC3CC4)on2)cc1`: the inhibition is 31% in [1]; 87% in [3]; 16% in assay [4]; 43% in assay [5]; 67% in assay [6]; 57% in assay [7]. Also, the inhibition in assay [8] is 95%. Besides, in [12], the 50% inhibitory concentration (IC50) worked out at 806 nM.
Regarding `CC(C)(C)OC(=O)Nc1ccc(-c2cc(/C=C3\CN4CCC3CC4)on2)cc1`, the inhibition in [1] was 5%; in assay [3], 41%; in [4], 14%; in assay [5] it was 64%; in assay [6] it was 36%; in assay [7] it was 12%. The inhibition in assay [8] was 59%. The 50% inhibitory concentration (IC50) in [12] was above 10 nM.
Regarding `Nc1ccc(-c2cc(/C=C3/CN4CCC3CC4)on2)cc1`, the inhibition in assay [1] came to 1%; in assay [3] it was 19%; in assay [4], 5%; in assay [13] it was 94%; in [6], 30%; in assay [7], 33%. The inhibition in [8] was found to be 86%. The half-inhibitory concentration (IC50) in assay [14] is 709 nM.
Turning to `COc1ccc(COc2ccc(-c3cc(/C=C4\CN5CCC4CC5)on3)cc2OCc2ccc(OC)cc2)cc1`, the inhibition in assay [1] was 76%; in assay [3] it was 98%; in assay [4] it was 49%; in assay [5], 0%; in [6] it was 92%; in [7], 85%. In addition, the inhibition in assay [8] stood at 100%. In addition, in assay [12], the IC50 is 260 nM.
